Source: patent US5348941A, “Stabilizers for fibroblast growth factors” (Merck & Co., Inc., priority 1992, dated 1994)

What was measured:
aFGF [1] = molecular target: T1, aFGF (Homo sapiens, UniProt P05230); assay: Copper-catalyzed oxidation of aFGF thiol groups; type: biochemical; details: for Cu Oxidation (% SH Lost in 10 Mins): ligand 3X by weight, sodium sulfate 120 mM, tetrapolyphosphate 10 mM
T1 construct: The recombinant derived, 140 amino add form is the preferred form of aFGF; N-terminal methionine (MetHaFGF); made in house; host or cells: microbial cells (preferred embodiment)
Description: Copper-catalyzed oxidation of aFGF is carried out in the following manner. Acidic FGF (about 80 μg/ml) is incubated in a 20 mM Tris, 0.15M potassium chloride, pH 8 solution containing about 20 μM cuptic chloride for varying periods of time at room temperature. The reaction was terminated by the addition of 100 mM EDTA in the same buffer. A solution of about 0.7 ml of 0.25M Tris (about pH 8) containing about 2 mM EDTA and about 7 M GuHC1 is then added followed by about 35 μl of 4 mg/ml of DTNB (Sigma). Samples were incubated for 30 minutes, filtered through a 0.22 micron filter and the optical density measured at about 412 nm to determine sulfhydryl content, Riddles et al., Meth. Enzymol. 9:49-60 (1983). Relative standard deviation of the obtained values during time course experiments is 12%.
Acidic FGF contains three free cysteine residues at positions […], 83 and 117 in the polypeptide chain. […] It has also been shown that the copper catalyzed oxidative formation of a disulfide bond in the wild-type aFGF inactivates the protein in an in vitro mitogenic assay, Ortega et al., J. Biol. Chem. 266:5842-5846 (1991). Therefore, it was of interest to determine the extent to which heparin can stabilize aFGF against inactivation by oxidation. […] Samples contained 80 μg/ml aFGF with (a) 3X heparin by weight, (b) 0.1X heparin by weight and (c) buffer alone. As heparin was introduced and its concentration increased, the rate of copper-catalyzed oxidation decreased. For example, after 20 minutes, greater than 95% of the cysteine residues of aFGF are protected from oxidation with 3X heparin. FIG. 4B illustrates the fraction of remaining reactive thiol groups after a 10-minute incubation with cupric chloride as a function of heparin concentration.
Some aggregation of aFGF occurs under the conditions of these experiments presumably due to at least partial intermolecular disulfide formation. Thus, these measurements could simply be a measurement of the loss of solubility induced by copper association with aFGF. Several experiments, however, argue against this possibility. First, previous work has shown that at dilute protein concentration, copper does indeed catalyze oxidation of thiol groups of aFGF, Ortega et al., J. Biol. Chem. 266:5842-5846 (199 1 ). Second, as a control experiment, the copper-catalyzed oxidation of aFGF was carded out in a buffer containing 6 M GuHCl. Under these denaturing conditions, nearly 100% of the thiol groups in solution were lost after 10 minutes without visible aggregation. […] Regardless of the precise mechanism, copper addition is a distinct mechanism of inactivation compared to thermal stress.
Similar protection against oxidation experiments were carried out with other negatively charged compounds with an excess of ligand (3X by weight except for sodium sulfate at 120 mM and tetrapolyphosphate at 10 mM) added to aFGF before copper catalyzed oxidation. As shown in the second column of Table 2, all of these agents at least partially protect the cysteine residues of aFGF from oxidation.
^(b) Percentage of aFGF thiols remaining in solution after 10 min
incubation with cupric chloride. Experimental conditions are described in
FIG. 10. All samples contained ligand at 3× (by weight) except
sodium sulfate (120 mM) and tetrapolyphosphate (10 mM).

aFGF [2] = molecular target: T1, aFGF; assay: Thermal denaturation (Tm) of aFGF by circular dichroism; type: biochemical; details: for Tm of aFGF (maximum Tm induced by ligand), circular dichroism: PBS pH 7.2, excess ligand (1-3X by weight; 120 mM sodium sulfate, 10 mM tetrapolyphosphate); for Tm of aFGF, circular dichroism: 3X ligand by weight

T1 sequence (P05230 16-155 limits assumed): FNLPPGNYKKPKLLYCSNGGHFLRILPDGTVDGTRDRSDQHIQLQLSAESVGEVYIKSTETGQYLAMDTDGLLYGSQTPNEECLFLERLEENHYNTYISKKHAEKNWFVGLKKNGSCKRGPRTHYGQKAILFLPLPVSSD

| Compound | Cu Oxidation (% SH Lost in 10 Mins) (aFGF [1]) | Cu Oxidation (% SH Lost in 10 Mins) (aFGF [1]; listed as inositol hexaphosphate) | Tm of aFGF (maximum Tm induced by ligand), circular dichroism (aFGF [2]) | cysteine residues of aFGF protected from oxidation (aFGF [1]; 3X heparin, 20 minutes) | stabilization against copper-catalyzed oxidation (aFGF [1]; 10-minute incubation, 1/3 weight level of heparin) | Tm of aFGF, circular dichroism (aFGF [2]) |
| --- | --- | --- | --- | --- | --- | --- |
| O=P(O)(O)O[C@H]1[C@H](OP(=O)(O)O)[C@@H](OP(=O)(O)O)[C@H](OP(=O)(O)O)[C@@H](OP(=O)(O)O)[C@H]1OP(=O)(O)O [Inositol hexaphosphate, inositol hexaphosphate] | < 3% | less than 3% | 70 °C | – | – | – |
| O=S(=O)(O)OC1C(OS(=O)(=O)O)C(OS(=O)(=O)O)C(OS(=O)(=O)O)C(OS(=O)(=O)O)C1OS(=O)(=O)O (stereo not shown) [Inositol hexasulfate, inositol hexasulfate] | 22% | – | 66 °C | – | – | – |
| O=P(O)(O)OP(=O)(O)OP(=O)(O)OP(=O)(O)O [Tetrapolyphosphate] | < 3% | – | 66 °C | – | – | – |
| dextran sulfate | 7% | – | 62 °C | – | – | – |
| heparin [reference compound] | < 3% | – | 64 °C | greater than 95% | stabilization essentially complete at 1/3 weight levels of heparin | 64 °C |
| low molecular weight heparin [Low MW heparin, reference compound] | < 3% | – | 66 °C | – | – | – |
| sulfated β-cyclodextrin | < 3% | – | 65 °C | – | – | 65 °C |
